Measured values: article PMC9822769, “The Strange Case: The Unsymmetric Cisplatin-Based Pt(IV) Prodrug [Pt(CH3COO)Cl2(NH3)2(OH)] Exhibits Higher Cytotoxic Activity with respect to Its Symmetric Congeners due to Carrier-Mediated Cellular Uptake” (Bioinorganic Chemistry and Applications, 2022)

What was measured:
[1] = RP-HPLC lipophilicity (log k′) on C18 column; assay type: physicochemical; settings: 30% methanol/70% aqueous 15 mM formic acid
Protocol: Retention times, tR, were measured on two columns: (i) a standard C18 column (Phenomenex Phenosphere-NEXT, 250 × 4.6 mm, 5 μm) and (ii) an IAM.PC.DD.2 column (Regis, 10 cm × […], 10 μm packing 300 Å pore size), prepared by covalently bonding cell-membrane-forming phospholipids to silica. On (i), a chromatogram was performed for each complex (0.25 mM) in a fixed eluent composition (30% methanol/70% aqueous 15 mM formic acid; flow rate 0.5 mL·min^−1) using a Waters HPLC-MS instrument (equipped with an Alliance 2695 separation module, a 2487 dual lambda absorbance detector, and a 3100 mass detector). The UV-vis detector was set at 210 nm. In (ii), the mobile phase consisted of 20 mM ammonium acetate buffer at pH 6.9 and acetonitrile flowing at 1 mL·min^−1. The samples were dissolved in the mobile phase in a concentration range of 50–100 μg·mL^−1. An HPLC Varian ProStar instrument equipped with a 410 autosampler, a PDA 335 LC detector, and Galaxie Chromatography Data System Version 1.9.302.952 was used.
The different tRs were used to calculate log k′, which is the logarithm of the retention factor k′ = (tR − t0)/t0, where t0 is the column dead time (i.e., the tR of KCl or citric acid used as the internal reference for (i) and (ii), respectively).
The lipophilicity of a compound is commonly described by the octanol-water partition coefficient, log Po/w, which can be defined as the ratio of the concentration of the compound between the organic (n-octanol) and the aqueous phase. However, other faster methods, such as RP-HPLC, have often been used to evaluate lipophilicity instead of the shake-flask method. […] Therefore, the retention times (tR) of the complexes were determined on a C18 column using a 70/30 (% v/v) water/MeOH mixture as an eluent, and the data were expressed as log k′ (k′ = (tR − t0)/t0, where t0 is the column dead time of the column). The trend of the measured log k' was 3 > 2 > cisplatin > 1, as expected based on the structure of the complexes, the acetato ligand being more lipophilic than the hydroxido one (Table 1).

[2] = system: A2780 cells; assay: Cellular Pt accumulation in A2780 cells in the presence of uptake inhibitors; assay type: cell-based, human; settings: A2780, 1 h, 10 μM; for effect of NaN3/2DG pretreatment on cell accumulation (AR): NaN3 and 2DG both 25 mM
Protocol: A2780 and A2780cisR cells were seeded in 10 mm Petri dishes and challenged with complexes under investigation (10 μM) in a complete medium for 4 h. At the end of the exposure, cells were washed three times with PBS, detached from Petri dishes using 0.05% trypsin 1x + 2% EDTA (HyClone, Thermo Fisher), and harvested in a completely fresh medium. An automatic cell counting device (Countess®, Life Technologies) was used to measure the number and mean diameter of each cell necessary to calculate the mean cellular (spherical) volume.
For the analysis of Pt accumulation, cells were transferred to a borosilicate glass tube and centrifuged at 1100 rpm for 5 min at room temperature. The supernatant was carefully removed by aspiration, while approximately, 200 μL of the supernatant was left to limit cell loss. Cellular pellets were stored at −80°C until mineralization.
The determination of the platinum content was performed by ICP-MS (Thermo Optek X Series 2). Mineralization was carried out by adding 70% w/w HNO3 to each sample (after defrosting), followed by incubation for 1 h at 60°C in an ultrasonic bath. Before the ICP-MS measurement, HNO3 was diluted to a final concentration of 1%. The instrument settings were optimized to produce the highest platinum sensitivity, and the most abundant isotopes of Pt and In (used as an internal standard) were quantified at m/z 195 and 115, respectively.
The quantity of Pt found in cells and normalized on cell number (cellular Pt accumulation) was expressed as ng of Pt per 10^6 cells. The mean cellular volume, calculated from the actual mean cell diameter measured for each sample (about 12 μm), was used to obtain the volume of 10^6 cells and, finally, the intracellular Pt concentration. At treatment time zero, 100 μL of the medium was taken from each sample to verify the extracellular Pt concentration. The ratio between intracellular and the actual extracellular concentrations is defined as the accumulation ratio, AR [70]. The Pt content in the control experiment, which characterizes any possible Pt contamination during the overall process, was statistically insignificant with respect to the cellular Pt accumulated during treatment, even in the case of A2780cisR.
Experiments with the inhibitors were carried out at 37°C as follows: (i) NaN3 + 2-deoxy-D-glucose (2DG): preincubation for 30 min in PBS with 25 mM NaN3 and 25 mM 2DG, followed by a 10 μM CT with the Pt compounds in Earle's Balanced Salt Solution (EBSS) for 1 h; (ii) cimetidine (CMT): coincubation with 1.5 mM CMT and 10 μM Pt compounds in EBSS for 1 h; (iii) 1-methyl-4-phenylpyridin-1-ium (MPP^+): coincubation with 2.0 mM MPP^+ and 10 μM Pt compounds in EBSS for 1 h; (iv) cytochalasin D (CTD): preincubation for 30 min in EBSS with 10 μM CTD, followed by a 10 μM CT with the Pt compounds in EBSS for 1 h; (v) O-benzylserine (BS): coincubation with 1.0 mM BS and 10 μM Pt compounds in EBSS for 4 h; (vi) ouabain (OUA): preincubation for 1 h in EBSS with 1 mM OUA, followed by a 10 μM CT with the Pt compounds in EBSS for 4 h; (vii) tetraethylammonium chloride (TEA): […] in EBSS for 4 h. In the experiments at low temperature, A2780 cells were preincubated for 2 h at 4°C, followed by CT with each Pt compound (10 μM) for 4 h. In all cases, at the end of the CT, the cells were manipulated as described in the previous paragraphs.

Structure (SMILES) | Log k′ [1] | effect of OCT inhibitors (TEA, MPP+, CMT) on AR [2] | effect of NaN3/2DG pretreatment on cell accumulation (AR) [2] | effect of O-benzylserine (BS) on cellular accumulation ([2]; BS cotreatment 1 mM) | effect of cimetidine (CMT) on cell accumulation ([2]; CMT cotreatment 1.5 mM) | effect of cytochalasin D (CTD) on Pt accumulation ([2]; CTD pretreatment 10 μM) | effect of MPP+ on cell accumulation ([2]; MPP+ cotreatment 2 mM) | effect of ouabain (OUA) on cellular accumulation ([2]; OUA pretreatment 1 mM) | effect of tetraethylammonium (TEA) on uptake ([2]; TEA pretreatment 20 mg·mL^−1)
N.N.[OH][Pt]([OH])([Cl])[Cl] [Complex 1, (OC-6-33)-diamminedichloridodihydroxidoplatinum(IV)] | −1.50 | not significantly affected | without appreciably affecting | – | – | – | – | – | –
CC(=O)[O][Pt]([OH])([Cl])[Cl].N.N [Complex 2, (OC-6-44)-acetatodiamminedichloridohydroxidoplatinum(IV)] | −1.10 | – | statistically reduced | did not cause a significant effect | inhibited | did not cause any decrease | inhibited | did not cause a significant effect | evident (albeit statistically not significant) decrease
CC(=O)[O][Pt]([NH2])([NH2])([Cl])([Cl])[O]C(C)=O [Complex 3, (OC-6-33)-diamminedichloridodiacetatoplatinum(IV)] | −0.84 | not significantly affected | without appreciably affecting | – | – | – | – | – | –
